Positions count from the first letter of the chain named.
Assays:
[1] = biological target: T1, GIPR (Homo sapiens, UniProt P48546); test: cAMP accumulation, wild-type GIPR; assay type: cell-based; details: HEK-293T, 40 min, TR-FRET, mean ± S.E.M.
T1 construct: expressed in transfected cells; host or cells: HEK-293T
Method: (§1) HEK-293T cells were maintained at 37°C in 5% CO2 incubator and seeded onto 6-well cell […]
(§2) culture plates before transfection. After overnight culture, the cells were transiently transfected […]
(§3) with various constructs using Lipofectamine 2000 transfection reagent (Invitrogen). After 24 h, […]
(§4) the transfected cells were seeded onto 384-microtiter plates at a density of 3,000 cells per well […]
(§5) in stimulation buffer (HBSS supplemented with 5 mM HEPES, 0.1% (w/v) casein and 0.5 mM […]
(§6) 3-isobutyl-1-methylxanthine). Different concentrations of retatrutide in stimulation buffer were […]
(§7) added, and the stimulation lasted for 40 min. The reaction was stopped by addition of cAMP […]
(§8) detection buffer containing Eu-cAMP tracer and ULight-anti-cAMP. Plates were then incubated for […]
(§9) 60 min at RT. Time-resolved FRET signals were measured at 620 nm and 665 nm, respectively, by […]
(§10) an EnVision multilabel plate reader (PerkinElmer). Data were analyzed in GraphPad PRISM 9.5 […]
and all values were normalized to that of the wild-type (WT). […]
(§11) accumulation was measured in wild-type (WT) and single-point mutated GLP-1R, GIPR or […]
of the WT and dose-response curves were analyzed using a three-parameter logistic equation. […]
curves were analyzed using a three-parameter logistic equation to obtain pEC50 and Emax values. […]
(§12) way ANOVA was used to determine statistical difference. N.D., values that could not be determined due […]

[2] = biological target: T2, GIPR mutants (Homo sapiens, UniProt P48546, R131E); test: cAMP accumulation, single-point mutated GIPR; assay type: cell-based; details: GIPR R131(1.33b)E
T2 construct: expressed in transfected cells; host or cells: HEK-293T
T2 sequence (P48546 22-466 R131E): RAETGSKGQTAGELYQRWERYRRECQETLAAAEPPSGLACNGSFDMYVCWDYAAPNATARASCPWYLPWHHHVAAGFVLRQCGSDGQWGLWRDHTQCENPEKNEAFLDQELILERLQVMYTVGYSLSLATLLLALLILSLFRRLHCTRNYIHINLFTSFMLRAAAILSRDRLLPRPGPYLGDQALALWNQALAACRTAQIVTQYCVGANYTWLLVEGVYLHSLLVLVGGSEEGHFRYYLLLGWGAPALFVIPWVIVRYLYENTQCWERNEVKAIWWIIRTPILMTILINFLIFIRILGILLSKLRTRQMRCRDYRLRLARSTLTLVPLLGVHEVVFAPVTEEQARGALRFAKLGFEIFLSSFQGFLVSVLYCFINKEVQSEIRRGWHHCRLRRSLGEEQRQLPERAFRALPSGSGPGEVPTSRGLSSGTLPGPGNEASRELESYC
Method: as §1, §2, §3, §4, §5, §6, §7, §8, §9, §10
(§13) and all values were normalized to that of the wild-type (WT).
(§14) Supplementary Fig. 5 Effects of receptor mutation on retatrutide-induced cAMP […]
(§15) accumulation. a-c, Signaling profiles of GLP-1R (a), GIPR (b) and GCGR (c) mutants. cAMP […]
as §11
(§16) GCGR expressing HEK-293T cells. cAMP levels were normalized to the maximum response […]
(§17) of the WT and dose-response curves were analyzed using a three-parameter logistic equation.
(§18) Data were generated and graphed as means ± S.E.M. of at least three independent experiments performed in quadruplicate.
(§19) (1 picture or pasted object on this page, not shown here)
(§20) Supplementary Ta b l e S 5 Effects of the ligand-binding pocket residue mutation on retatrutide- […]
(§21) induced cAMP signaling at GLP-1R, GIPR or GCGR. […]
(§22) cAMP levels were normalized to the maximum response of the wild-type (WT) and dose-response […]
(§23) curves were analyzed using a three-parameter logistic equation to obtain pEC50 and Emax values. The […]
(§24) experiments were carried out independently at least three times. Data shown are means ± S.E.M. One- […]
as §12
(§25) to incomplete curve fits. *P< 0.05, **P< 0.01, ***P< 0.001 and ****P<0.0001.

[3] = biological target: T3, GIPR mutants (Homo sapiens, UniProt P48546, E354A); test: cAMP accumulation, single-point mutated GIPR; assay type: cell-based; details: GIPR E354(6.53b)A; HEK-293T, 40 min, TR-FRET; mean ± S.E.M., n at least 3
T3 construct: expressed in transfected cells; host or cells: HEK-293T
T3 sequence (P48546 22-466 E354A): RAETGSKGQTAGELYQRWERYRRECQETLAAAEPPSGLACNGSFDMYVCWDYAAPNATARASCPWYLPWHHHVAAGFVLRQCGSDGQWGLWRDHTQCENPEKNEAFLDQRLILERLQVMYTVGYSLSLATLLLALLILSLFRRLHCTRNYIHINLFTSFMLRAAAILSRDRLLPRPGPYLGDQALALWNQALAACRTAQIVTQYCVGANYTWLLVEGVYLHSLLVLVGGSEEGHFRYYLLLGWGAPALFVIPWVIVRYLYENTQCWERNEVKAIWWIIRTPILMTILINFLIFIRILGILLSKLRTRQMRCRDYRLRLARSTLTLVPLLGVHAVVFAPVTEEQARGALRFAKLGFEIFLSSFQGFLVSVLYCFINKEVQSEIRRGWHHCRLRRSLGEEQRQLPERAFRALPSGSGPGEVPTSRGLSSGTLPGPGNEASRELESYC
Method: as §1, §2, §3, §4, §5, §6, §7, §8, §9, §10, §13, §14, §15, §11, §16, §17, §18, §19, §20, §21, §22, §23, §24, §12, §25

[4] = biological target: T4, GIPR mutants (Homo sapiens, UniProt P48546, Y36A); test: cAMP accumulation, single-point mutated GIPR; assay type: cell-based; details: GIPR Y36(ECD)A; HEK-293T, 40 min, TR-FRET; mean ± S.E.M., n at least 3
T4 construct: expressed in transfected cells; host or cells: HEK-293T
T4 sequence (P48546 22-466 Y36A): as the sequence (P48546 22-466 E354A) above, with Y15A, A333E counted along it
Method: as §1, §2, §3, §4, §5, §6, §7, §8, §9, §10, §13, §14, §15, §11, §16, §17, §18, §19, §20, §21, §22, §23, §24, §12, §25

[5] = biological target: T5, GIPR mutants (Homo sapiens, UniProt P48546, F127A); test: cAMP accumulation, single-point mutated GIPR; assay type: cell-based; details: GIPR F127(1.29b)A; HEK-293T, 40 min, TR-FRET; mean ± S.E.M., n at least 3
T5 construct: expressed in transfected cells; host or cells: HEK-293T
T5 sequence (P48546 22-466 F127A): as the sequence (P48546 22-466 E354A) above, with F106A, A333E counted along it
Method: as §1, §2, §3, §4, §5, §6, §7, §8, §9, §10, §13, §14, §15, §11, §16, §17, §18, §19, §20, §21, §22, §23, §24, §12, §25

[6] = biological target: T6, GIPR mutants (Homo sapiens, UniProt P48546, W209A); test: cAMP accumulation, single-point mutated GIPR; assay type: cell-based; details: GIPR W209(ECL1)A; HEK-293T, 40 min, TR-FRET; mean ± S.E.M., n at least 3
T6 construct: expressed in transfected cells; host or cells: HEK-293T
T6 sequence (P48546 22-466 W209A): as the sequence (P48546 22-466 E354A) above, with W188A, A333E counted along it
Method: as §1, §2, §3, §4, §5, §6, §7, §8, §9, §10, §13, §14, §15, §11, §16, §17, §18, §19, §20, §21, §22, §23, §24, §12, §25

[7] = biological target: T7, GIPR mutants (Homo sapiens, UniProt P48546, R196Y); test: cAMP accumulation, single-point mutated GIPR; assay type: cell-based; details: GIPR R196(ECL1)Y
T7 construct: expressed in transfected cells; host or cells: HEK-293T
T7 sequence (P48546 22-466 R196Y): T2 sequence (P48546 22-466 R131E) with E110R, R175Y
Method: as §1, §2, §3, §4, §5, §6, §7, §8, §9, §10, §13, §14, §15, §11, §16, §17, §18, §19, §20, §21, §22, §23, §24, §12, §25

[8] = test system: GCGR; details: less potent than the endogenous hormone; cited from earlier work
Excerpt: (§26) The most successful treatments currently available include glucagon-like peptide-1 (GLP-1) receptor agonists (GLP-1RAs), exemplified by semaglutide (approved in 2017, $19.9 billion sales in 2023)[3] and tirzepatide (approved in 2022, $5.3 billion sales in 2023)[4].

[9] = test system: GLP-1R; details: GLP-1R, less potent than the endogenous hormone, factor; cited from earlier work
Excerpt: as §26

[10] = HEK-293T, 40 min, TR-FRET, mean ± S.E.M., n at least 3

T1 sequence (P48546 22-466): as the sequence (P48546 22-466 E354A) above, with A333E counted along it

CC[C@H](C)[C@H](NC(=O)[C@H](Cc1ccccc1)NC(=O)[C@H](C)NC(=O)C(C)(C)NC(=O)[C@H](CCC(N)=O)NC(=O)[C@H](C)NC(=O)[C@H](CCCCNC(=O)COCCOCCNC(=O)CC[C@H](NC(=O)CCCCCCCCCCCCCCCCCCC(=O)O)C(=O)O)NC(=O)[C@H](CCCCN)NC(=O)[C@H](CC(=O)O)NC(=O)[C@H](CC(C)C)NC(=O)[C@](C)(CC(C)C)NC(=O)[C@@H](NC(=O)[C@H](CO)NC(=O)[C@H](Cc1ccc(O)cc1)NC(=O)[C@H](CC(=O)O)NC(=O)[C@H](CO)NC(=O)[C@@H](NC(=O)[C@H](Cc1ccccc1)NC(=O)[C@@H](NC(=O)CNC(=O)[C@H](CCC(N)=O)NC(=O)C(C)(C)NC(=O)[C@@H](N)Cc1ccc(O)cc1)[C@@H](C)O)[C@@H](C)O)[C@@H](C)CC)C(=O)N[C@@H](CCC(=O)O)C(=O)N[C@@H](Cc1ccc(O)cc1)C(=O)N[C@@H](CC(C)C)C(=O)N[C@@H](CC(C)C)C(=O)N[C@@H](CCC(=O)O)C(=O)NCC(=O)NCC(=O)N1CCC[C@H]1C(=O)N[C@@H](CO)C(=O)N[C@@H](CO)C(=O)NCC(=O)N[C@@H](C)C(=O)N1CCC[C@H]1C(=O)N1CCC[C@H]1C(=O)N1CCC[C@H]1C(=O)N[C@@H](CO)C(N)=O [retatrutide]
EC50 ([1]; GIPR WT, at least 3 independent experiments in quadruplicate): 2.29 pM
Emax ± S.E.M. (% WT) ([1]; n at least 3): 100.00 ± 2.84 % WT
change of retatrutide potency by mutation ([2]; relative to WT, modestly): decreased
Emax ± S.E.M. (% WT) [2, 10]: 98.44 ± 3.88 % WT
EC50 ([2]; HEK-293T, 40 min, TR-FRET, mean ± S.E.M., n at least 3, **P < 0.01): 9.33 pM
EC50 [3]: 5.89 pM
Emax ± S.E.M. (% WT) [3]: 99.43 ± 4.28 % WT
EC50 [4]: 3.09 pM
Emax ± S.E.M. (% WT) [4]: 99.10 ± 3.86 % WT
EC50 [5]: 4.17 pM
Emax ± S.E.M. (% WT) [5]: 99.67 ± 4.00 % WT
EC50 [6]: 2 pM
Emax ± S.E.M. (% WT) [6]: 100.17 ± 3.21 % WT
decrease of retatrutide potency by mutation ([7]; relative to WT): 107.7 fold
Emax ± S.E.M. (% WT) [7, 10]: 92.16 ± 5.36 % WT
EC50 ([7]; HEK-293T, 40 min, TR-FRET, mean ± S.E.M., n at least 3, ****P < 0.0001): 245 pM
potency factor compared to endogenous hormone [8]: 0.3
potency factor compared to endogenous hormone [9]: 0.4

From PMC11255275, “Structural insights into the triple agonism at GLP-1R, GIPR and GCGR manifested by retatrutide” (Cell Discovery, 2024)
